Legend:
[1] = tested on: KB cells; assay: Inhibition of KB cell growth (XTT assay / total cell protein); type: cell-based, human
Method: Cell culture and treatment.
Evaluation of dendrimer cytotoxicity. Cell growth was determined by assay of the total protein in lysates of treated cells using a bicinchoninic acid reagent (PIERCE, and by XTT assay, using a kit from Roche.
Because the binding of the conjugate to KB cells reaches maximal uptake within 1 h (Quintana et al, 2002. Pharmaceutical Research 19: 1310-1316), the effect of the G5-FI-FA-MTX on cell growth was initially tested by pre-incubation of cells with the conjugate for 1 h, followed by incubation in a drug-free medium for 5 d. […] When the cells were pre-incubated with dendrimers for 4 h, there was a modest decrease of about 10% in cell growth as determined by XTT assay. The cytotoxicity measurements were therefore done by incubation with the dendrimer for a minimum of 24 h, a pre-incubation time period shown to induce significant cytotoxicity.
Time course and dose dependent inhibition of cell growth. Previous studies have shown that MTX-induced cytotoxicity is detectable in vitro only if the medium is completely deprived of FA (See, e.g., Sobrero & Bertino, Int. J. Cell Cloning 4, 51 (1986)). The effect of the trifunctional dendrimers on cell growth was tested in cells incubated in a FA-deficient medium. Cells were treated with 300 nM conjugates (equivalent of 1500 nM MTX) or 1500 nM free MTX for 1-4 days, and cell proliferation was determined by estimation of cellular protein content. […] KB cells which express high and low FAR were incubated with 30 nM of the dendrimers for 1 hr at 37° C., rinsed, and the fluorescence of cells was determined by flow cytometric analysis (See. e.g., FIG. 21, left panel). […]
As the G5-FITC-FA-MTX preparation contained equimolar concentrations of MTX and FA, the effect of similar concentrations of free MTX and free FA on the inhibition of cell growth was determined. […] The cells were rinsed to remove the drugs and incubated with fresh medium for an additional 6 d, and total cell protein was determined. […]

[2] = tested on: human KB xenografts; assay: Tumor growth and survival of SCID mice bearing s.c. human KB xenografts; type: in vivo
Method: (§1) Delivery of targeted nanoparticle therapeutic.
Targeted drug delivery to tumor cells through the folate receptor. The efficacy of different doses of conjugates was tested on SCID CB-17 mice bearing s.c. human KB xenografts and was compared with equivalent and higher doses of free methotrexate. […] Six groups of SCID mice with five mice in each group were injected s.c. on one flank with 5×10^6 KB cells in 0.2 mL PBS suspension. The highest total dose of G5-FI-FA-MTX therapeutic used equals 55.0 mg/kg and is equivalent to a 5.0 mg/kg total cumulative dose of free methotrexate (FIG. 29). The therapeutic dose of the conjugate was compared with three cumulative doses of free methotrexate equivalent to 33.3, 21.7, and 5.0 mg/kg accumulated in 10 to 15 injections based on mouse survival. Saline and the conjugate without methotrexate (G5-FI-FA) were used as controls.
The equivalent dose of methotrexate delivered with both targeted conjugates to the surviving mice was higher than the dose of free methotrexate because all of the mice receiving free methotrexate died by day 66 of the trial (FIG. 30). The survival of mice from groups receiving G5-FI-FA-MTX or G5-FA-MTX conjugate indicate that tumor growth based on the end-point volume of 4 cm3 can be delayed by at least 30 days (FIG. 30). This value indicates the antitumor effectiveness of the conjugate because it mimics clinical end-points and requires observation of the mice throughout the progression of the disease. […] The tumor in this mouse was not palpable for the next 20 days up to the 60th day of the trial. […] Thus, in some embodiments, the present invention provides a composition comprising a dendrimer comprising a targeting agent, a therapeutic agent and an imaging agent. In preferred embodiments, the dendrimer is used for delivery, in a target specific manner, of a therapeutic agent (e.g., methotrexate) to tumor cells in vivo.

[3] = Toxicity of dendrimer conjugates and free methotrexate in SCID mice; type: in vivo
Description: as §1
Toxicity of dendrimer conjugates. […] No morphologic abnormalities were observed on the histopathology examination.
The remaining experimental groups had very uniform body weight fluctuations nonindicative of toxicity when compared with control groups with saline or conjugate without methotrexate.

Compound | reversal of MTX-induced growth arrest by free FA ([1]; 150 nM FA with 150 nM MTX, 24 h, then 6 d, total cell protein) | effect on tumor growth ([2]; cumulative dose equivalent to 5.0 mg/kg methotrexate (G5-FI-FA equimolar dendrimer)) | effect on tumor growth ([2]; free methotrexate cumulative 33.3 and 21.7 mg/kg) | survivors at termination of the trial ([2]; second 99-day trial) | inhibition of cell growth (XTT assay) ([1]; 1, 2 or 3 days) | growth inhibition of free MTX versus equimolar MTX in conjugate ([1]; below 1 μM) | liver histopathology ([3]; mouse, in vivo) | toxicity (body weight) ([3]; total dose equivalent to 5.0 mg/kg free methotrexate)
Nc1nc2ncc(CNc3ccc(C(=O)N[C@@H](CCC(=O)O)C(=O)O)cc3)nc2c(=O)[nH]1 [FA, Folic Acid] | almost completely reversed the growth-arrest caused by 150 nM MTX | – | – | – | – | – | – | –
CN(Cc1cnc2nc(N)nc(N)c2n1)c1ccc(C(=O)N[C@@H](CCC(=O)O)C(=O)O)cc1 [MTX, Methotrexate] | – | no effect on tumor growth | affecting tumor growth | no mice surviving | time-dependent cytotoxicity | higher than with the equimolar concentrations of MTX in the G5-FITC-FA-MTX | advanced liver lesions, collections of inflammatory cells, and periportal inflammation | neither the total accumulated dose of therapeutic conjugate equivalent to 5.0 mg/kg free methotrexate nor free methotrexate at the same dose were toxic
